The results in this text go back to patent publication US20260000496A1, “MATERIALS AND METHODS FOR DRUG-INDUCED GINGIVAL OVERGROWTH” (Optimed Technology, Inc., priority 2019, published 2026).

One series deals with Human TNF-α promoter. Kind of series: TNF-α promoter luciferase reporter assay in oral keratinocytes. The conditions noted are these: full length promoter and deletion constructs; CSA, LPS & Folic acid each 10 μg/ml; p<0.05. In kind it is cell-based. On the procedure: Reporter assay. The TNF-α promoter deletion constructs, Δ−1220 (−1220 to +65) and Δ−450 (−450 to +65) were synthesized from SwitchGear Genomics (USA) for the luciferase reporter assay. The human TNF-α promoter constructs or an empty pLightSwitch promoter reporter vector as a control was transfected in to NOKSI using the FuGene reagent (SwitchGear Genomics, USA). Cells were seeded with a density of 5×10^3 per well of 96-well plate. GoClone reporter constructs and transfection reagents were mixed with optimum combination and incubated for 30 minutes. The media were changed to the seeded cells and reaction mixture were gently dripped onto the seeded cells, shaked the plate gently and incubated for next 24 hours. The LightSwitch assay reagents were added to the transfected plates and incubated for 30 minutes at room temperature. Luciferase activity were measured with a luminometer (Wallac Vector3; PerkinElmer, Boston, MA).
Oral Keratinocytes cells were transfected with Full length TNF-α promoter and […] and treated with CSA (10 μg/ml) & LPS (10 μg/ml), and CSA (10 μg/ml), LPS (10 μg/ml) & Folic acid (10 μg/ml). TNF-α luciferase reporter activity were measured. (p<0.05).
A general note: In a reporter assay the amount or activity of a reporter protein is the signal.

Series [1] concerns Collagen type I alpha 1 (Col1a1). The experiment in a line: Collagen (Col1a1) expression in Human Oral Fibroblasts, QPCR. The class given is cell-based. The note with it: HOF treated with conditioned media from Oral Keratinocytes containing LPS, CSA, Phenytoin or Folic acid (10 μg/ml), 24 hours; p<0.05. How it is done: Cell Culture. Normal human oral keratinocytes (NOKSI) and fibroblast (HOF) cells were maintained in Dulbecco […] Eagle's medium (Sigma-Aldrich, St. Louis, MO, USA) supplemented with 10% fetal bovine serum (Atlas Bio-logicals, Fort Collins, CO, USA) and 100 units/mL penicillin and 100 μg/mL streptomycin (LifeTechnologies, Carlsbad, CA, USA). Cells were grown in incubator at 37° C. in a humidified chamber with 5% CO2.
Human Oral Fibroblasts (HOF) cells were seeded in 60 mm plates with a density of 2.5×10^4/cm^2 and treated with condition (CM) media collected from Oral Keratinocytes containing LPS (10 μg/ml), CSA (10 μg/ml), Phenytoin (10 μg/ml), or Folic acid (10 μg/ml) and incubated for 24 hours. The Collagen type I alpha 1 (Col1a1) gene expression was determined by QPCR. HOF cells were treated with rTGF-β, SB-431542 (SB), rTNF-α, or TNF-α inhibitor (TNF-α inh). Quantitative real-time PCR results showing the expression of Col1a1 in HOF cells after the treatment. (p<0.05).

Series [2] in a line: Folic acid release from PLG(A) microspheres in methylcellulose gel. The class given is physicochemical. On the procedure:
Folic acid was encapsulated in polylactic-colycolide (PLG) microspheres that were visualized using scanning electron microscopy (SEM) (A). These microspheres were embedded within a methylcellulose gel to enable oral applications and visualized using SEM (B). Controlled release of folic acid of a protracted time course was examined using spectroscopy and cumulative release was calculated (C).
In order to deliver the Folic acid treatment, a controlled release system with polylactic glycolic acid (PLGA) and methylcellulose gel were used (FIG. 36). Release kinetics of folic acid increased over time and noted to continue until day 21. The amount of the released Folic acid was approximate 400 μg/ml on day 1 and reached 800 μg/ml on day 21 due to bulk deterioration of polymer.
Microsphere Fabrication. The folic acid was encapsulated in poly (lactide-co-glycolide) (PLG) (8515DLG7E, Lakeshore Biomaterials, Birmingham, AL, USA) microspheres using double emulsion solvent evaporation method. Briefly, a 100 μL quantity of proteins dissolved in molecular-grade water was pipetted into 1 mL of 5% PLG in ethyl acetate (Sigma-Aldrich Corp., St. Louis, MO, USA) and sonicated (Sonics and Materials Inc., Newtown, CT, USA) on 50% magnitude for 1 min. A second emulsion composed of 1% […] (PVA) (Sigma-Aldrich) and 7% ethyl acetate was then added and vortexed for 15 sec. The solution was then added to a 1% PVA solution with continuous stirring for 3 hrs at room temperature and filtered through a 0.2-μm filter (Nalgene, ThermoFisher Scientific, Rockville, MD, USA), collected by centrifugation at 2,000 rpm for 10 min (Eppendorf, Hamburg, Germany), freeze-dried for 16 hrs (Labconco, Kansas City, MO, USA), and stored at −20° C. The microspheres fabricated with this technique were between 2 and 200 microns.
Gel preparation and folic acid release study. Folic acid (100 μg/ml) (Sigma-Aldrich, St Louis, MO) was encapsulated in PLG microspheres as described above. The resulting lyophilized powder was formulated into an oral gel containing 20 mg of folic acid microspheres mixed with 5% of methylcellulose (Sigma-Aldrich, St Louis, MO) in 330 μl of phosphate buffer saline. The gels were prepared fresh daily before applications and repeated until end of the study period (14 days).

A further series relates to p-P65. The experiment in a line: Immunofluorescence of p-P65 nuclear translocation in oral keratinocytes. In kind it is cell-based, human. The conditions noted are these: 24 hours. How it is done:
Immunostaining and fluorescence microscopy. The cultured cells were fixed with 4% paraformaldehyde followed by permeabilization with phosphate buffered saline (PBS) containing 0.1% Triton X-100 (PBS-T), and blocking with PBS-T containing 5% bovine serum albumin (BSA). Then, the cells were incubated with anti-pP65 antibody (Cell Signaling, USA) followed by Alexa Fluor 488 conjugated-goat anti-rabbit secondary antibody (Invitrogen, Grand Island). Rhodamine phalloidin (Invitrogen) and 4′,6-diamidino-2-phenylindole (Vector labs, Burlingame) were added to visualize the actin and nucleus respectively. The samples were mounted and examined using a Zoe microscope (BioRad, USA). The image analyses were performed using the ImageJ (NIH) software.
Oral Keratinocytes cells were cultured, and treated with CSA, LPS or FA alone or with combinations and incubated for 24 hours. The immunofluorescent images were taken to determine the translocation of p-P65 (green) to the nucleus (blue). Cells were counterstained with Phalloidin (cytoskeleton, red) and DAPI (nucleus).
Oral Keratinocytes cells were seeded in 24 well plates. […] Translocation of phospho-p65 (p-P65) protein to the nucleus was determined by fluorescence microscopy as shown in the green color. The morphology of cells and nucleus position were determined by palloidin and DAPI staining shown by red and blue colors respectively.

In the case of `Nc1nc2ncc(CNc3ccc(C(=O)N[C@@H](CCC(=O)O)C(=O)O)cc3)nc2c(=O)[nH]1` [folic acid], in the series on Human TNF-α promoter, the “TNF-α luciferase reporter activity” value is on record as “inhibits promoter activity of TNF-α”. Also, the “Collagen type I alpha 1 (Col1a1) gene expression” value in series [1] is “reduces the collagen expression”. Also, the “release of folic acid from polymeric microspheres” value in series [2] (FIG. 20) is given as “sustained release”. Moreover, in series [2] (controlled release system with PLGA and methylcellulose gel), the “release of folic acid noted to continue until” value is 21 days. The “amount of the released Folic acid” value was around 400 µg/mL in series [2] (controlled release system with PLGA and methylcellulose gel, day 1); 800 µg/mL in series [2] (controlled release system with PLGA and methylcellulose gel, day 21). Moreover, the “translocation of p-P65 to the nucleus” value in the series with p-P65 (CSA, LPS or FA alone or in combinations) is “inhibits CSA-induced activation of phospho-P65”. Moreover, the “translocation of phospho-p65 (p-P65) protein to the nucleus” value in the series with p-P65 (LPS, Phe, FA each 10 μg/ml) is reported as “reduced nuclear translocation of p-P65”.
